Results reported in US9359452B2, “Isolation and characterisation of heparan sulphates and their use in pharmaceutical compositions, methods of treatment and stem cell culture media suitable for conditions associated with bone repair” (Agency for Science, Technology and Research, priority 2009, dated 2016).
“Also recorded” adds a separate entry of the source.

Experiments:
[1] = test system: human mesenchymal stem cells (hMSC); assay: hMSC proliferation, viable cell count (GUAVA Viacount) in maintenance medium; format: cell-based; settings: normal growth medium; data not shown
Description: (§1) Human mesenchymal stem cells (hMSCs) (Cambrex, USA) were plated in maintenance medium consisting of DMEM (1000 mg/L glucose), 10% fetal calf serum (FCS), 2 mM L-glutamine and 100 U/ml penicillin-streptomycin sulfate at 37° C. in a humidified atmosphere with 5% CO2. To assess their proliferation, assays were performed to determine cell number utilizing the GUAVA PCA-96 System (GUAVA Technologies) as per the manufacturer's instructions. Briefly, cells were seeded at 3,000 cells/cm^2 in 48-well plates and allowed to adhere overnight. […] Proliferation of cells was assessed by Guava viacount on 1, 3, 5 and 7 day to determine the total viable cells. Cells were washed in PBS, pelleted with 0.125% trypsin, the trypsin neutralized, the pellet resuspended in 400 μl of PBS with the addition of 4 μl of Flex reagent, incubated for 10 min and cell number and viability determined utilizing the GUAVA Viacount software.
Human mesenchymal stem cells (hMSCs) were plated in maintenance medium consisting of DMEM (1000 mg/L glucose), 10% fetal calf serum (FCS), 2 mM L-glutamine and 100 U/ml penicillin-streptomycin sulfate at 37° C. in a humidified atmosphere with 5% CO2. To assess their proliferation, assays were performed to determine cell number utilizing the GUAVA PCA-96 System (Millipore, USA) as per the manufacturer's instructions.
Briefly, cells were seeded at 3,000 cells/cm^2 in 48-well plates and allowed to adhere overnight. […] Proliferation of cells was assessed on days 1, 3, 5 and 7 to determine total viable cells. Cells were washed in PBS, pelleted with 0.125% trypsin, the trypsin neutralized, the pellet resuspended in 400 μl of PBS with the addition of 4 μl of Flex reagent, incubated for 10 min and cell number and viability determined utilizing the GUAVA Viacount software.

[2] = test system: human mesenchymal stem cells (hMSC); assay: hMSC proliferation, viable cell count in osteogenic medium; format: cell-based; settings: data not shown
Description: (§2) FIG. 5. Effect of male and female liver HS on the growth of hMSC in maintenance and osteogenic medium. Cells were cultured for 7 days in normal maintenance medium in the presence of different concentrations (12.5 μg/ml or 1.25 μg/ml or 625 ng/ml or 312 ng/ml or 156 ng/ml) of male liver HS (A), and female liver HS (B). Cells were cultured for 7 days in osteogenic medium in the presence of different concentrations (12.5 μg/ml or 625 ng/ml or 312 ng/ml) of male liver HS (C), and female liver HS (D). Viable cell counts were determined at day 1, 3, 5 and 7. (E) The importance of FGFR signaling for HS activity was investigated by supplementing serum starved sub confluence cultures with male or female. HS (2.5 μg/ml) or FGF2 (2.5 ng/ml) in the presence or absence of an FGFR1 inhibitor (SU5402 at 20 μM) for 60 min. Total protein was extracted for Western blotting and first probed for activated ERK1/2 expression (pERK1/2). Membranes were then striped and reprobed with anti ERK1/2 antibody. (F) The amount of pERK1/2 protein was determined by densitometry. […]
as §1, with “CO2.” for “CO2. To assess their proliferation, assays were performed to determine cell number utilizing the GUAVA PCA-96 System (GUAVA Technologies) as per the manufacturer's instructions. Briefly, cells were seeded at 3,000 cells/cm^2 in 48-well plates and allowed to adhere overnight.”
To assess the possibility of structural differences identified between the male and female liver HS to modulate hMSC proliferation, hMSCs were treated with varying concentration of HS and viable cell number was counted over a 7-day culture period in normal maintenance or differentiation (osteogenic) medium.

hMSCs = assay: hMSC proliferation with or without FGFR1 inhibitor SU5402, 5 days; format: cell-based, human
[3] = test system: Bovine aortic smooth muscle cells (BASMC); settings: literature (Yang et al); cited from earlier work
ERK1/2 = ERK1/2 phosphorylation in serum-starved hMSC (Western blot); format: cell-based, human; settings: SU5402 at 20 μM, 60 min, with male or female HS 2.5 μg/ml
Description: as §2
MSCs were seeded in designated media at 5,000/cm^2 in six-well plates and cultured until subconfluent. […] Protein content was determined using a Protein Assay Kit (Bio-Rad) following the manufacturer's instructions. […]

For 2-de-O-sulfated heparin, the “hMSC proliferation compared to 10% serum” value [1] was “less effect on proliferation” and the “effect on hMSC proliferation” value [2] was “no effect; also recorded: neither de-N-sulfated, 2-de-O-sulfated nor 6-de-O-sulfated heparin had any effect”.

For 6-de-O-sulfated heparin, the “hMSC proliferation compared to 10% serum” value [1] was “less effect on proliferation” and the “effect on hMSC proliferation” value [2] was “no effect; also recorded: neither de-N-sulfated, 2-de-O-sulfated nor 6-de-O-sulfated heparin had any effect”.

With FGF2 the “effect on hMSC proliferation” value (hMSCs; FGF2 2.5 ng/ml) was “induced proliferation”.

In the case of heparin [highly sulfated heparin], the “effect on BASMC mineralization” value [3] is given as “inhibited”.

For dermatan sulfate, the “effect on BASMC mineralization” value [3] is given as “no inhibition; also recorded: no inhibitory activity”.

In the case of N-desulfated heparin, the “effect on BASMC mineralization” value [3] is given as “no inhibition; also recorded: no inhibitory activity”.

With `Cc1c[nH]c(/C=C2\C(=O)Nc3ccccc32)c1CCC(=O)O` [SU5402] the “effect on liver HS-stimulated ERK1/2 phosphorylation” value (ERK1/2) was “blocked”, the “effect on basal growth of hMSCs” value (hMSCs; SU5402 at 20 μM) was “inhibitory effect” and the “effect on HS and FGF2 induced proliferation” value (hMSCs; SU5402 at 20 μM, male HS 2.5 μg/ml or FGF2 2.5 ng/ml) was “preventing HS and FGF2 induced proliferation”.

For de-N-sulfated heparin, the “hMSC proliferation compared to 10% serum” value [1] was “does not increase hMSC proliferation; also recorded: failed to improve hMSC proliferation” and the “effect on hMSC proliferation” value [2] was “no effect; also recorded: neither de-N-sulfated, 2-de-O-sulfated nor 6-de-O-sulfated heparin had any effect”.
